# Measurements: US11767310B2, “Nicotinamide RIPK1 inhibitors” (AbbVie Inc., priority 2021, dated 2023)
# Where two headings read alike, the source gives them in different places. Marks after values point to notes of the source that are not given here.
# Key:
# ACVR1 = ACVR1 (Homo sapiens (Human), UniProt Q04771); assay: Kinase binding screen; conditions: read-out: Percent Control at 100 nM Compound Concentration
# AKT3 = AKT3 (Homo sapiens (Human), UniProt Q9Y243); assay: Kinase binding screen; conditions: read-out: Percent Control at 100 nM Compound Concentration
# CAMK1 = CAMK1 (Homo sapiens (Human), UniProt Q14012); assay: Kinase binding screen; conditions: read-out: Percent Control at 100 nM Compound Concentration
# CAMK1G = CAMK1G (Homo sapiens (Human), UniProt Q96NX5); assay: Kinase binding screen; conditions: read-out: Percent Control at 100 nM Compound Concentration
# CDKL5 = CDKL5 (Homo sapiens (Human), UniProt O76039); assay: Kinase binding screen; conditions: read-out: Percent Control at 100 nM Compound Concentration
# EPHB4 = EPHB4 (Homo sapiens (Human), UniProt P54760); assay: Kinase binding screen; conditions: read-out: Percent Control at 100 nM Compound Concentration
# FGFR3(G697C) = FGFR3(G697C) (Homo sapiens (Human), UniProt P22607, G697C); assay: Kinase binding screen; conditions: read-out: Percent Control at 100 nM Compound Concentration
# GRK1 = GRK1 (Homo sapiens (Human), UniProt Q15835); assay: Kinase binding screen; conditions: read-out: Percent Control at 100 nM Compound Concentration
# IKK-epsilon = IKK-epsilon (Homo sapiens (Human), UniProt Q14164); assay: Kinase binding screen; conditions: read-out: Percent Control at 100 nM Compound Concentration
# KIT(D816V) = KIT(D816V) (Homo sapiens (Human), UniProt P10721, D816V); assay: Kinase binding screen; conditions: read-out: Percent Control at 100 nM Compound Concentration
# LATS1 = LATS1 (Homo sapiens (Human), UniProt O95835); assay: Kinase binding screen; conditions: read-out: Percent Control at 100 nM Compound Concentration
# MLK3 = MLK3 (Homo sapiens (Human), UniProt Q16584); assay: Kinase binding screen; conditions: read-out: Percent Control at 100 nM Compound Concentration
# MST1 = MST1 (Homo sapiens (Human), UniProt Q13043); assay: Kinase binding screen; conditions: read-out: Percent Control at 100 nM Compound Concentration
# NDR1 = NDR1 (Homo sapiens (Human), UniProt Q15208); assay: Kinase binding screen; conditions: read-out: Percent Control at 100 nM Compound Concentration
# PIK3CA(E545A) = PIK3CA(E545A) (Homo sapiens (Human), UniProt P42336, E545A); assay: Kinase binding screen; conditions: read-out: Percent Control at 100 nM Compound Concentration
# PIM1 = PIM1 (Homo sapiens (Human), UniProt P11309); assay: Kinase binding screen; conditions: read-out: Percent Control at 100 nM Compound Concentration
# QSK = QSK (Homo sapiens (Human), UniProt Q9Y2K2); assay: Kinase binding screen; conditions: read-out: Percent Control at 100 nM Compound Concentration
# ROS1 = ROS1 (Homo sapiens (Human), UniProt P08922); assay: Kinase binding screen; conditions: read-out: Percent Control at 100 nM Compound Concentration
# STK39 = STK39 (Homo sapiens (Human), UniProt Q9UEW8); assay: Kinase binding screen; conditions: read-out: Percent Control at 100 nM Compound Concentration
# TIE2 = TIE2 (Homo sapiens (Human), UniProt Q02763); assay: Kinase binding screen; conditions: read-out: Percent Control at 100 nM Compound Concentration
# [1] = target: TYK2(JH1domain-catalytic) (Homo sapiens (Human), UniProt P29597); assay: Kinase binding screen; conditions: read-out: Percent Control at 100 nM Compound Concentration
# YANK1 = YANK1 (Homo sapiens (Human), UniProt Q8WU08); assay: Kinase binding screen; conditions: read-out: Percent Control at 100 nM Compound Concentration
# [2] = Prodrug bioconversion in intestinal S9 cell fractions; format: in vitro ADME
# Description: Phosphatase enzymes are […] expressed with unique tissue specific isoforms and are key catalysts in the conversion of phosphate-containing prodrugs. To determine if exemplary phosphate prodrug compounds of the invention are enzymatically converted to the parent molecule across relevant species, the prodrug compounds were incubated with intestinal S9 cell fractions obtained from mouse, rat, dog, monkey, and human.
# […] Incubations were conducted in the absence and presence of 1 mM sodium orthovanadate, a phosphatase inhibitor. Prodrug depletion and parent formation were monitored by LC-MS/MS and normalized to internal standard as the analyte peak area ratio.
# Chain of QSK (Q9Y2K2 whole entry): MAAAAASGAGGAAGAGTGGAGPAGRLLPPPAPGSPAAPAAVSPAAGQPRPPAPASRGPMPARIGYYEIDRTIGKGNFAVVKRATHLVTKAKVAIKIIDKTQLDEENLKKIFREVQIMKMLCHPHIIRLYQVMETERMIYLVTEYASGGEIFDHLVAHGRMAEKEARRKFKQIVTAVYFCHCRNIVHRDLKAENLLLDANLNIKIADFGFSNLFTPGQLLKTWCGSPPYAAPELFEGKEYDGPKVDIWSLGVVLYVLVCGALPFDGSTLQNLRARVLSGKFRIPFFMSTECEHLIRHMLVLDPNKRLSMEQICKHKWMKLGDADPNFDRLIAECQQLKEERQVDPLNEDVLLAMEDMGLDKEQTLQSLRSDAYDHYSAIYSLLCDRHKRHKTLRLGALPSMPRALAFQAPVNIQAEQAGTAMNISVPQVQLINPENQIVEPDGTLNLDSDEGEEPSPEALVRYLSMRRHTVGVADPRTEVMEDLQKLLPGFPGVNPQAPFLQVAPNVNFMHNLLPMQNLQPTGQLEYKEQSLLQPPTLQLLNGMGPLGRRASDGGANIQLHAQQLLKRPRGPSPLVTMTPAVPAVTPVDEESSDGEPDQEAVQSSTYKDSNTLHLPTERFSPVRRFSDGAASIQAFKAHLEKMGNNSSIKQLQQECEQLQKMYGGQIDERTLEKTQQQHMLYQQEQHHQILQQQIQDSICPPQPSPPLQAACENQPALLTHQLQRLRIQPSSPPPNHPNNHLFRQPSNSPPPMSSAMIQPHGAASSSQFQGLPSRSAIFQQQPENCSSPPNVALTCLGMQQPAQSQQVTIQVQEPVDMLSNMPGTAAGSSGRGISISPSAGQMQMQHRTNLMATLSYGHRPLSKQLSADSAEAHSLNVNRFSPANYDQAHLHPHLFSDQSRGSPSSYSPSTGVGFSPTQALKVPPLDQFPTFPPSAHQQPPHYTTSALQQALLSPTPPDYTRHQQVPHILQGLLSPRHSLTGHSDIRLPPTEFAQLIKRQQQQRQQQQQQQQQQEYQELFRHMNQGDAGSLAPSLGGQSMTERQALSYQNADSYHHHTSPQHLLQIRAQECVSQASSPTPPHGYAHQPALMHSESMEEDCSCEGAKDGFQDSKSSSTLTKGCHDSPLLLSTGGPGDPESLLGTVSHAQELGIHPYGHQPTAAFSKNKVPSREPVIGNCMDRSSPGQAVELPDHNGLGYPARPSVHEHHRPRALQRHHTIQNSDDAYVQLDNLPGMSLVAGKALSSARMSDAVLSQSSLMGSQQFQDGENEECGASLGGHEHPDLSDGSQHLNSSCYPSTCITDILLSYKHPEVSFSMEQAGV
# Chain of CDKL5 (O76039 whole entry): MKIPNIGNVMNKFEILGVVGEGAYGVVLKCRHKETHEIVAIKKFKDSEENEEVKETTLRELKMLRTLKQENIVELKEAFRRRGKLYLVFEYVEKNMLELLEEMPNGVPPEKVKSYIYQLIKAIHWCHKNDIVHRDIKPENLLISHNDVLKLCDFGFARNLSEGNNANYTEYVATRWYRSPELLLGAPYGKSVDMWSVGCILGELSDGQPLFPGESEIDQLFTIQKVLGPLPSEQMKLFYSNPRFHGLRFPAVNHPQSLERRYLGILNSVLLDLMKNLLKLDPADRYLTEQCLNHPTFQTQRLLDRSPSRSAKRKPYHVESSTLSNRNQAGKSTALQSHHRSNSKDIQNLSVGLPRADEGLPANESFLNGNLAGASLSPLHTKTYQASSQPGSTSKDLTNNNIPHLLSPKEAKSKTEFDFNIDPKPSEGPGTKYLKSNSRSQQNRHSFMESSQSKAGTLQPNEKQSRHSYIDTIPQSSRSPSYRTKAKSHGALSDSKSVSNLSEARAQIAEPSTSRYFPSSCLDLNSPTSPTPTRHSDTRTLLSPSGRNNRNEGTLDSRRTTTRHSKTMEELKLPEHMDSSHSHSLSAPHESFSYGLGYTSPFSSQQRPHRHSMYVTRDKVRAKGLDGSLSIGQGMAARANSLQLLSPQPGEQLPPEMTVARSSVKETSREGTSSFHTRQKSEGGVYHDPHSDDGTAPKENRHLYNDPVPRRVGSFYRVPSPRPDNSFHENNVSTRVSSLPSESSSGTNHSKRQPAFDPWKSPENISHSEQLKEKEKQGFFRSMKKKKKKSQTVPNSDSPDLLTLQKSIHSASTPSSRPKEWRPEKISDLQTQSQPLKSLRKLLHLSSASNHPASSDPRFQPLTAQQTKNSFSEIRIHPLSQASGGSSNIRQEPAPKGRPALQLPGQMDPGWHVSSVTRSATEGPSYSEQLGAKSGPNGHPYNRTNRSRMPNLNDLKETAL
# Chain of GRK1 (Q15835 whole entry): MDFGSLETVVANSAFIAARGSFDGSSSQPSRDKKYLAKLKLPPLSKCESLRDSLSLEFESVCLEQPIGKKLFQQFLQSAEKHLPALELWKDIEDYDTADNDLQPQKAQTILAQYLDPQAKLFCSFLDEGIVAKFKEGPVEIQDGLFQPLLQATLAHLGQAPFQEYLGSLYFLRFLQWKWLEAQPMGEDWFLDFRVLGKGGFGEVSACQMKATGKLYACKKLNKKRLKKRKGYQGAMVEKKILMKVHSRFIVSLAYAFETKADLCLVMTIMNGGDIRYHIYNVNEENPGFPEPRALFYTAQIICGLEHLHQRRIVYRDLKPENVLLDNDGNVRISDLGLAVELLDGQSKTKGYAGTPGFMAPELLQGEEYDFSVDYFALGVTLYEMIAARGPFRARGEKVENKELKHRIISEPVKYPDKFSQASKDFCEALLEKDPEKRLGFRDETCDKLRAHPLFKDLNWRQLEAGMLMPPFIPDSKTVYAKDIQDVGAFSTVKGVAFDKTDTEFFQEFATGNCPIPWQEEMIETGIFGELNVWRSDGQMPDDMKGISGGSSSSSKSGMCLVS
# Chain of KIT(D816V) (P10721 26-976 D816V): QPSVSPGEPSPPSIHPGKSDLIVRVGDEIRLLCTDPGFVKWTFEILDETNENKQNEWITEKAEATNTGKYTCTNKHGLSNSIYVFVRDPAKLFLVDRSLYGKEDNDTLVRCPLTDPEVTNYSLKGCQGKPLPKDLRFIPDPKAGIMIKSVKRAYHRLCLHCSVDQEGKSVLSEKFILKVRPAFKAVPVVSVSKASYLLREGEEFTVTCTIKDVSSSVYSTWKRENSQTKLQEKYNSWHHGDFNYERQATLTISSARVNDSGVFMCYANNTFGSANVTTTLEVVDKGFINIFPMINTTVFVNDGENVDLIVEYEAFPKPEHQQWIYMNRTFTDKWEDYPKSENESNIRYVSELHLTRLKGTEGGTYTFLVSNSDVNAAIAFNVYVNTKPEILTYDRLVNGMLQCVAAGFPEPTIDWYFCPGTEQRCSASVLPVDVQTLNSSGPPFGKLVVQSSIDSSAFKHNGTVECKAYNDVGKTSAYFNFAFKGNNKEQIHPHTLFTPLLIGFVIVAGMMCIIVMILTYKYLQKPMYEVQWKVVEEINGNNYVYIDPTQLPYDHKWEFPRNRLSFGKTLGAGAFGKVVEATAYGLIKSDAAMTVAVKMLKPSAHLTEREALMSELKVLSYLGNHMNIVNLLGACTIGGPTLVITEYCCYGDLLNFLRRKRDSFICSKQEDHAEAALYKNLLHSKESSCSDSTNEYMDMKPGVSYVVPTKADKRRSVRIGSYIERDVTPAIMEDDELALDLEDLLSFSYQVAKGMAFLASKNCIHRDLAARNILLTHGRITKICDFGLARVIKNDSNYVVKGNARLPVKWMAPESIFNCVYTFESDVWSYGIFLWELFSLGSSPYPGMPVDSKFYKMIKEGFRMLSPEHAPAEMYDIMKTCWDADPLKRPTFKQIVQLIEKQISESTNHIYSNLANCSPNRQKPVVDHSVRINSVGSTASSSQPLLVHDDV
# Chain of LATS1 (O95835 whole entry): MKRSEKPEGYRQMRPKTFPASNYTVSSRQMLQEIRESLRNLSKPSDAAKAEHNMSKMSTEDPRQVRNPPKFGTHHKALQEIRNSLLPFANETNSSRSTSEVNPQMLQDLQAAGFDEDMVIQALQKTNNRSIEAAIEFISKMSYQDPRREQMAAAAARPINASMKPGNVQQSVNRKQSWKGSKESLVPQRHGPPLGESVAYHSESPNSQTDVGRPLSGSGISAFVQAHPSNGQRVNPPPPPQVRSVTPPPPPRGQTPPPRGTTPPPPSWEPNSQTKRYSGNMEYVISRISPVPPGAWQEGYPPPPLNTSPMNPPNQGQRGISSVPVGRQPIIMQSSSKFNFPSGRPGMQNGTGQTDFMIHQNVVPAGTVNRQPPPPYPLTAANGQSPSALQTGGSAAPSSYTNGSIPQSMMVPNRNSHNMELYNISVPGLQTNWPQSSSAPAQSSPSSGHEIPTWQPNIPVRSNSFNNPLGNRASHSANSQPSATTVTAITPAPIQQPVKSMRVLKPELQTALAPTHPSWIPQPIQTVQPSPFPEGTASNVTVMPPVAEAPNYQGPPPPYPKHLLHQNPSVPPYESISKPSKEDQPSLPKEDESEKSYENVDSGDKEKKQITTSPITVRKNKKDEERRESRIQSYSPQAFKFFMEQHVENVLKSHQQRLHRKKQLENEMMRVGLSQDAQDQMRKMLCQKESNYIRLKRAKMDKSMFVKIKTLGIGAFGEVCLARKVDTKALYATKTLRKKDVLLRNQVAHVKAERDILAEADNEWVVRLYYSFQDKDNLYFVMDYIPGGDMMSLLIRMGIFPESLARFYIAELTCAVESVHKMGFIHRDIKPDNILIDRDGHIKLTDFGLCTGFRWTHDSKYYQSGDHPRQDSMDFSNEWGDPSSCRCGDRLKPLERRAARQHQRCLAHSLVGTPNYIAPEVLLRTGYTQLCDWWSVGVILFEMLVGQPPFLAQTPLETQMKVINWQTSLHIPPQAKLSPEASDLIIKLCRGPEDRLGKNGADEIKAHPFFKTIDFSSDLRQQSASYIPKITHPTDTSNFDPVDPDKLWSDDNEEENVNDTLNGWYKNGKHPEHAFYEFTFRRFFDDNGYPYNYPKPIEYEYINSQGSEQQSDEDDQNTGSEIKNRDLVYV
compound,measurement,setting,value
"CN(C[C@@H](O)Cc1ccccc1)C(=O)c1cncc(C#Cc2cnn(C(F)F)c2)c1 [Example 2, (S)-5-((1-(difluoromethyl)-1H-pyrazol-4-yl)ethynyl)-N-(2-hydroxy-3-phenylpropyl)-N-methylnicotinamide]",remaining activity at 0.1 µM,ACVR1; ACVR1,100%
same,remaining activity at 0.1 µM,AKT3; AKT3,100%
same,remaining activity at 0.1 µM,CAMK1; CAMK1,100%
same,remaining activity at 0.1 µM,CAMK1G; CAMK1G,93%
same,remaining activity at 0.1 µM,CDKL5; CDKL5,93%
same,remaining activity at 0.1 µM,EPHB4; EPHB4,100%
same,remaining activity at 0.1 µM,FGFR3(G697C); FGFR3(G697C),100%
same,remaining activity at 0.1 µM,GRK1; GRK1,100%
same,remaining activity at 0.1 µM,IKK-epsilon; IKK-epsilon,100%
same,remaining activity at 0.1 µM,KIT(D816V); KIT(D816V),100%
same,remaining activity at 0.1 µM,LATS1; LATS1,100%
same,remaining activity at 0.1 µM,MLK3; MLK3,95%
same,remaining activity at 0.1 µM,MST1; MST1,100%
same,remaining activity at 0.1 µM,NDR1; NDR1,100%
same,remaining activity at 0.1 µM,PIK3CA(E545A); PIK3CA(E545A),89%
same,remaining activity at 0.1 µM,PIM1; PIM1,98%
same,remaining activity at 0.1 µM,QSK; QSK,88%
same,remaining activity at 0.1 µM,ROS1; ROS1,100%
same,remaining activity at 0.1 µM,STK39; STK39,100%
same,remaining activity at 0.1 µM,TIE2; TIE2,100%
same,remaining activity at 0.1 µM,[1]; TYK2(JH1domain-catalytic),100%
same,remaining activity at 0.1 µM,YANK1; YANK1,100%
"CN(C[C@H](Cc1ccccc1)OP(=O)(O)O)C(=O)c1cncc(C#Cc2cnn(C(F)F)c2)c1 [Example 19, (S)-1-(5-((1-(difluoromethyl)-1H-pyrazol-4-yl)ethynyl)-N-methylnicotinamido)-3-phenylpropan-2-yl dihydrogen phosphate]",Clint (prodrug disappearance),"[2]; Human, 0.01 mg/mL S9 protein, Table F",1608.5 μL/min/mg intestinal S9 protein
same,Clint (prodrug disappearance),"[2]; Human, 0.25 mg/mL S9 protein, Table F",296 μL/min/mg intestinal S9 protein
same,Clint (prodrug disappearance),"[2]; Human, 0.25 mg/mL, Experiment 1",246 μL/min/mg intestinal S9 protein
same,Clint (prodrug disappearance),"[2]; Human, 0.25 mg/mL, Experiment 2",228 μL/min/mg intestinal S9 protein
same,Clint (prodrug disappearance),"[2]; Human, 0.25 mg/mL, Experiment 3",235 μL/min/mg intestinal S9 protein
same,Clint (prodrug disappearance),"[2]; Human, 0.25 mg/mL, Mean of 3 experiments",236.3 μL/min/mg intestinal S9 protein
same,Clint (prodrug disappearance),"[2]; Mouse, 0.01 mg/mL S9 protein, Table F",116.8 μL/min/mg intestinal S9 protein
same,Clint (prodrug disappearance),"[2]; Mouse, 0.25 mg/mL S9 protein, Table F",54.7 μL/min/mg intestinal S9 protein
same,Clint (prodrug disappearance),"[2]; Mouse, 0.25 mg/mL, Experiment 1",43.1 μL/min/mg intestinal S9 protein
same,Clint (prodrug disappearance),"[2]; Mouse, 0.25 mg/mL, Experiment 2",74.6 μL/min/mg intestinal S9 protein
same,Clint (prodrug disappearance),"[2]; Mouse, 0.25 mg/mL, Experiment 3",42.2 μL/min/mg intestinal S9 protein
same,Clint (prodrug disappearance),"[2]; Mouse, 0.25 mg/mL, Mean of 3 experiments",53.3 μL/min/mg intestinal S9 protein
same,Clint (prodrug disappearance),"[2]; Rat, 0.01 mg/mL S9 protein, Table F",<137** μL/min/mg intestinal S9 protein
same,Clint (prodrug disappearance),"[2]; Rat, 0.25 mg/mL S9 protein, Table F",42.4 μL/min/mg intestinal S9 protein
same,Clint (prodrug disappearance),"[2]; Rat, 0.25 mg/mL, Experiment 1",25.6 μL/min/mg intestinal S9 protein
same,Clint (prodrug disappearance),"[2]; Rat, 0.25 mg/mL, Experiment 2",16.9 μL/min/mg intestinal S9 protein
same,Clint (prodrug disappearance),"[2]; Rat, 0.25 mg/mL, Experiment 3",50.6 μL/min/mg intestinal S9 protein
same,Clint (prodrug disappearance),"[2]; Rat, 0.25 mg/mL, Mean of 3 experiments",31 μL/min/mg intestinal S9 protein
same,remaining activity at 0.1 µM,ACVR1,100%
same,remaining activity at 0.1 µM,AKT3,100%
same,remaining activity at 0.1 µM,CAMK1,62%
same,remaining activity at 0.1 µM,CAMK1G,100%
same,remaining activity at 0.1 µM,CDKL5,86%
same,remaining activity at 0.1 µM,EPHB4,100%
same,remaining activity at 0.1 µM,FGFR3(G697C),100%
same,remaining activity at 0.1 µM,GRK1,98%
same,remaining activity at 0.1 µM,IKK-epsilon,94%
same,remaining activity at 0.1 µM,KIT(D816V),100%
same,remaining activity at 0.1 µM,LATS1,88%
same,remaining activity at 0.1 µM,MLK3,89%
same,remaining activity at 0.1 µM,MST1,100%
same,remaining activity at 0.1 µM,NDR1,100%
same,remaining activity at 0.1 µM,PIK3CA(E545A),94%
same,remaining activity at 0.1 µM,PIM1,100%
same,remaining activity at 0.1 µM,QSK,85%
same,remaining activity at 0.1 µM,ROS1,91%
same,remaining activity at 0.1 µM,STK39,100%
same,remaining activity at 0.1 µM,TIE2,88%
same,remaining activity at 0.1 µM,[1],100%
same,remaining activity at 0.1 µM,YANK1,100%
